Values of other authors, collected in US10004757B1, “Oral supplement” (Nutri Vida, LLC, priority 2017, dated 2018).

Conditions: taken over the daily recommended amount

## O=C(O)c1cccnc1 [Niacin, nicotinic acid]
  decrease in triglycerides: 30%
